# Assay results reported in PMC9290910, “Neuropilin‐1 is required for endothelial cell adhesion to soluble vascular endothelial growth factor receptor 1” (The Febs Journal, 2021).
# “Also recorded” adds a separate entry of the source.
# T1: NRP‐1/VEGFR‐1 interaction (Homo sapiens, UniProt O14786)
# T1 construct: purchased R&D Systems 3870-N1 (NRP-1); 321-FL-050 (VEGFR-1/Fc)
# T1 sequence (O14786 22-644 isoform O14786-2 limits assumed): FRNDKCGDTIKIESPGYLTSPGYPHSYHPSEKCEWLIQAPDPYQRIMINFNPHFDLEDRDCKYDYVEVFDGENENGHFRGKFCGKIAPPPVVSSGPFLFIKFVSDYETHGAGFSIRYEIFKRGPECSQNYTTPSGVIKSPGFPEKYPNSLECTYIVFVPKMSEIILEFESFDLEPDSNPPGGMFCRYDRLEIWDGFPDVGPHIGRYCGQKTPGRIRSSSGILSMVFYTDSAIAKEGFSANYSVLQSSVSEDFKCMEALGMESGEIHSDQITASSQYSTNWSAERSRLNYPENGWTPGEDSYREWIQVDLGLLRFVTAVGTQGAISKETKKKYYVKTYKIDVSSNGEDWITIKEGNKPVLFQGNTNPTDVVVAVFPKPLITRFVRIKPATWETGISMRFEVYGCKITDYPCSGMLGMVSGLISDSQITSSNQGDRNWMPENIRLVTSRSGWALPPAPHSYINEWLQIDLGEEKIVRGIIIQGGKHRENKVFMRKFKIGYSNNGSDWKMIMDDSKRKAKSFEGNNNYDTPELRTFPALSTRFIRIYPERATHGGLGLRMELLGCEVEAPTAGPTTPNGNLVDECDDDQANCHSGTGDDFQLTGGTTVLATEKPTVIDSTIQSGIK
# T2: Recombinant human NRP‐1 (human, UniProt O14786 22-856)
# T2 construct: Neuropilin-1, human, recombinant soluble protein; see the vendor's datasheet (as far as I recall an extracellular fragment with a C-terminal His tag); also called Neuropilin‐1; soluble NRP‐1; source: bought: R&D Systems (3870‐N1)
# T2 sequence (looked up): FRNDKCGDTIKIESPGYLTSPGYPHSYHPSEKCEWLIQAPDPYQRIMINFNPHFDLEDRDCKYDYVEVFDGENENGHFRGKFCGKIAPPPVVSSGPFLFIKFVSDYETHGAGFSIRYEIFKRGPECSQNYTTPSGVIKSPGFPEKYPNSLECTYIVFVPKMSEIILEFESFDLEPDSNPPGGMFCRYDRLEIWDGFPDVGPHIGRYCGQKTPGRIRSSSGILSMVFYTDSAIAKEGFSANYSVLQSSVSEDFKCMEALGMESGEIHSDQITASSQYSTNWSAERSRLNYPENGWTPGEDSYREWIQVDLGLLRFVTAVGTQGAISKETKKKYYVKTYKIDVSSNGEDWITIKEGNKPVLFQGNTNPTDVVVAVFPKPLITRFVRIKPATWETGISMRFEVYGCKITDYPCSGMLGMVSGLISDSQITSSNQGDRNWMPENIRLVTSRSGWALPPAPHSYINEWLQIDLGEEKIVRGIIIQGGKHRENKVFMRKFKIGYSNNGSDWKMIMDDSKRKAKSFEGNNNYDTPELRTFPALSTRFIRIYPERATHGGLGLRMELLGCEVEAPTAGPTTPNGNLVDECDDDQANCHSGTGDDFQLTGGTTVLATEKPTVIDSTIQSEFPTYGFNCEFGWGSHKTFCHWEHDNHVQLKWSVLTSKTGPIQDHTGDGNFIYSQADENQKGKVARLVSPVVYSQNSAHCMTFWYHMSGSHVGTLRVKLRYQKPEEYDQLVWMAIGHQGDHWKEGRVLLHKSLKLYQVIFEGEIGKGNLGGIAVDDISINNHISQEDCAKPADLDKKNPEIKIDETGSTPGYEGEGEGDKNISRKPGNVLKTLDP
# B1: Flt_(2‐11) peptide (peptide)
# peptide: NITVTLKKFPL
# notes: Unlabelled peptide, as co-injected in the SPR experiments; also called peptide Flt_(2‐11); source: synthetic peptide (Primm, Milan)
# What was measured:
# [1] = test system: EC (HUVEC) adhesion to fibronectin; assay: Cell adhesion assay, EC adhesion to fibronectin; assay type: cell-based, human
# Procedure: (§1) Human umbilical vein endothelial cells (HUVEC) were isolated from freshly delivered umbilical cords, as previously described, cultured in Endothelial Cell Growth Medium‐2 Kit from Clonetics (EGM‐2, CC4176, Lonza, Basel, Switzerland), and used up to passage 6. For functional assays, HUVEC were resuspended in Endothelial Basal Medium‐2 (EBM‐2, CC3156, Lonza). A pool of cells derived from four different individuals was used.
# (§2) Solid support for adhesion assay was prepared by incubating immunological 96‐multiwell plates with 20 µg·mL^−1 VEGFR‐1/Fc chimera, or fibronectin solubilized in PBS. After 2 h, the coating solution was removed, and the well surface was blocked with 3% BSA in PBS for 18 h, before plating ECs in serum‐free medium at 3 × 10^4 cells per well. After incubation at 37 °C for 1 h, the wells were washed with PBS and attached cells were fixed with 3% formaldehyde and stained with 0.5% crystal violet. Attachment efficiency was determined by quantitative dye extraction and spectrophotometric measurement of the absorbance at 540 nm, using a Microplate reader 3550‐UV (Bio‐Rad). In competition experiments, peptides Flt2‐11, scrambled Flt2‐11, Flt2‐8 or Flt2‐5, at 20 µg·mL^−1, were added during the adhesion assay. Adhesion to peptide 12 was carried out by using maleic anhydride activated microplates (Reacti‐Bind, Pierce, Rockford, IL, USA) coated with 500 µg·mL^−1 of the peptide.
# [2] = test system: EC (HUVEC) adhesion to sVEGFR‐1; assay: Cell adhesion assay, EC adhesion to sVEGFR‐1; assay type: cell-based, human; details: for effect on EC adhesion to sVEGFR‐1: peptide 20 µg·mL^−1 during adhesion, 37 °C, 1 h, 20 µg·mL^−1 VEGFR‐1/Fc coating, crystal violet, 540 nm, triplicate
# Procedure: as §1, §2
# [3] = test system: HUVEC migration towards sVEGFR‐1; assay: Migration assay (Boyden chamber) towards sVEGFR‐1; assay type: cell-based, human; details: peptide 40 µM, 30 min preincubation; sVEGFR‐1 5 µg·mL^−1; 2 h, 37 °C; triplicate
# Procedure: as §1
# Cell migration was analysed using Boyden chambers equipped with 8 µm pore diameter polycarbonate filters (Nuclepore, Whatman Incorporated, Clifton, NJ, USA). Human sVEGFR‐1 stimulus (5 µg·mL^−1) for chemotaxis was added to the lower chamber and HUVEC (1.5 × 10^5) were loaded into the upper chamber. […] Cells were then loaded into the Boyden chambers without removing the peptides, and migration towards sVEGFR‐1 was analysed. […] Cells from the upper surface were removed by wiping with a cotton swab, and the chemotactic response was determined by counting the migrating cells attached to the lower surface of the filter in 12 randomly selected microscopic fields (×200 magnification) per experimental condition. Quantification was performed by two independent observers, blinded to the examined condition.
# [4] = molecular target: T1, NRP‐1/VEGFR‐1 interaction; assay: SPR, inhibition of NRP‐1/VEGFR‐1 interaction; assay type: binding; details: in words, NRP‐1 immobilized, VEGFR‐1 5 nM
# Procedure: Fig. 2 Flt2‐11 peptide inhibits NRP‐1 binding to VEGFR‐1. SPR analysis of the interaction between VEGFR‐1 and NRP‐1 in peptide absence (A), or presence of Flt2‐11 peptide (B) or scrambled Flt2‐11 peptide (C). NRP‐1 is immobilized on the sensor chip. (A) VEGFR‐1 is injected at different concentrations (from bottom to top: 0.6 nM, cyan; 1 nM, red; 2 nM, green; 2.5 nM, blue; and 5 nM, black). […] (B) VEGFR‐1 is injected at 5 nM together with peptide Flt2‐11 at different concentrations (from top to bottom: 0, black; 5 nM, blue; 15 nM, green; 45 nM, red; 100 nM, cyan; and 800 nM, magenta). […] (C) VEGFR‐1 is injected at 5 nM together with ‘scrambled’ Flt2‐11 peptide at different concentrations (from top to bottom: 0, black; 0.5 μM, blue; 950 μM, geen; and […], red).
# SPR experiments were carried out using a BIACORE X system (Biacore AB, Uppsala, Sweden). […] The reaction was carried out in 20 mM sodium acetate at pH 5.0, which is about 2 points below the theoretical NRP‐1 isoelectric point calculated using the program pI‐tool. […]
# RU express the mass concentration‐dependent changes in the observed SPR signal, that is, the refractive index on the sensor chip surface. Changes in this signal are determined by the interaction between the immobilized protein (i.e., either NRP‐1 or VEGFR‐1) with the analyte protein (i.e., VEGFR‐1/Fc, α5β1 integrin or semaphorin 3A). […]
# Recombinant human NRP‐1 = molecular target: T2, Recombinant human NRP‐1; assay: SPR; competition: NRP-1 immobilised by amine coupling; protein analyte at a fixed concentration (VEGFR-1/Fc 5 nM; α5β1 integrin 200 nM; semaphorin 3A 200 nM) injected together with peptide at different concentrations; HEPES-buffered saline; details: both partners purified
# [5] = ECs pretreated with soluble NRP‐1
molecule,measurement,setting,value
"soluble NRP‐1: Recombinant human NRP‐1 (3870‐N1), R&D Systems",effect of soluble NRP‐1 on EC adhesion to fibronectin,[1]; [5],not detectably altered
same,effect of soluble NRP‐1 on EC adhesion to sVEGFR‐1,[2]; [5],not detectably altered
same,effect of soluble NRP‐1 on EC adhesion to sVEGFR‐1,[2]; soluble NRP‐1 on coated plates prior to EC addition,impaired
"NITVT [Flt2‐5, Flt2‐11 peptide variant comprising the first five N‐terminal residues]",effect on EC migration towards sVEGFR‐1,[3],"same ability as the parent Flt2‐11 peptide to inhibit cell adhesion to, and migration towards, sVEGFR‐1; also recorded: migration towards, sVEGFR‐1 (Fig. 6C), to a similar extent as the Flt2‐11 peptide; also recorded: efficacy comparable to that of the parent eleven‐residue Flt2‐11 peptide"
same,effect on NRP‐1/VEGFR‐1 (sVEGFR‐1) interaction,[4],inhibiting NRP‐1/sVEGFR‐1 interaction as well
same,effect on EC adhesion to sVEGFR‐1,[2],same ability as the parent Flt2‐11 peptide to inhibit cell adhesion to; also recorded: able to significantly inhibit EC adhesion; also recorded: efficacy comparable to that of the parent eleven‐residue Flt2‐11 peptide
"LVPLKIKNTFT [scrambled Flt2‐11, containing the same residues as Flt2‐11 but in a different order, reference compound]",effect on EC adhesion to fibronectin,"[1]; peptide 20 µg·mL^−1 during adhesion, 37 °C, 1 h, 20 µg·mL^−1 fibronectin coating, crystal violet, 540 nm, triplicate",does not affect EC adhesion
same,effect on NRP‐1/VEGFR‐1 (sVEGFR‐1) interaction,[4],had no effect on NRP‐1/VEGFR‐1 interaction; also recorded: inhibits NRP‐1/VEGFR‐1 interaction only at high concentrations
same,effect on EC adhesion to sVEGFR‐1,[2],does not affect EC adhesion
B1,Ki,Recombinant human NRP‐1,20 nM
